Reference: ChEMBL document CHEMBL1909046, “DrugMatrix in vitro pharmacology data”

Legend:
[1] = biological target: T1, Cholecystokinin receptor type A (Homo sapiens, UniProt P32238); assay type: cell membranes, Membrane; conditions: 1321-n1; also: in other assays of this panel Not Active means under 50% inhibition at 10 µM
T1 sequence (P32238 whole entry): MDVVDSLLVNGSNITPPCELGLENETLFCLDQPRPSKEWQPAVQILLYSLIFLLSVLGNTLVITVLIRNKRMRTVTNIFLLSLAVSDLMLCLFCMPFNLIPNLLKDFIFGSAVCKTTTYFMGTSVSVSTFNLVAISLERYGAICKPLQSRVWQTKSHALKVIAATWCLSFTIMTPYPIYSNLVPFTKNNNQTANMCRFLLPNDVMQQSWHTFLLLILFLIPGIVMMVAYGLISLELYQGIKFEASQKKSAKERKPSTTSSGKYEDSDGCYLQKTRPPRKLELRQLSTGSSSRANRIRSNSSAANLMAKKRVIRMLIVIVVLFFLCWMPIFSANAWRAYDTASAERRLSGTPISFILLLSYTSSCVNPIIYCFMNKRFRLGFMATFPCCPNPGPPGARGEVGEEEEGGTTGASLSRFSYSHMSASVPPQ

[2] = biological target: Sodium-dependent dopamine transporter (Homo sapiens, UniProt Q01959); assay: DRUGMATRIX: Dopamine Transporter radioligand binding (ligand: [125I] RTI-55); assay type: cell membranes, CHO-K1, Membrane; conditions: Not Active = under 50% inhibition at 10 µM
Glycine receptor = Glycine receptor (Rattus norvegicus, UniProt P22771+P24524+P07727+P20781); assay type: cell membranes, Wistar, Spinal cord, Membrane; also: in other assays of this panel Not Active means under 50% inhibition at 10 µM
[3] = DRUGMATRIX: Interleukin IL-1 radioligand binding (ligand: [125I] interleukin 1beta); assay type: cell membranes, Membrane; conditions: nih3t3; Not Active = under 50% inhibition at 10 µM
[4] = DRUGMATRIX: Nicotinic Acetylcholine radioligand binding (ligand: [125I] Epibatidine); assay type: cell membranes, Membrane; conditions: imr-32; Not Active = under 50% inhibition at 10 µM
[5] = DRUGMATRIX: Phorbol Ester radioligand binding (ligand: [3H] PDBu); assay type: cell membranes, Mus musculus, ICR, Brain, Membrane; conditions: Not Active = under 50% inhibition at 10 µM
[6] = biological target: Tyrosine-protein kinase Fyn (Homo sapiens, UniProt P06241); assay: biochemical; assay type: cell-based, Insect cells;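 also: enzymatic inhibition of Fyn kinase activity measured with Poly(Glu:Tyr) as the phosphorylation substrate; in other assays of this panel Not Active means under 50% inhibition at 10 µM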
[7] = biological target: Receptor tyrosine-protein kinase erbB-2 (Homo sapiens, UniProt P04626); assay type: cell-based; conditions: insect cells;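 also: inhibition of HER2 kinase enzyme activity, measured with Poly(Glu:Tyr) as the phosphorylation substrate; in other assays of this panel Not Active means under 50% inhibition at 10 µM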
Sequence of Receptor tyrosine-protein kinase erbB-2 (P04626 whole entry): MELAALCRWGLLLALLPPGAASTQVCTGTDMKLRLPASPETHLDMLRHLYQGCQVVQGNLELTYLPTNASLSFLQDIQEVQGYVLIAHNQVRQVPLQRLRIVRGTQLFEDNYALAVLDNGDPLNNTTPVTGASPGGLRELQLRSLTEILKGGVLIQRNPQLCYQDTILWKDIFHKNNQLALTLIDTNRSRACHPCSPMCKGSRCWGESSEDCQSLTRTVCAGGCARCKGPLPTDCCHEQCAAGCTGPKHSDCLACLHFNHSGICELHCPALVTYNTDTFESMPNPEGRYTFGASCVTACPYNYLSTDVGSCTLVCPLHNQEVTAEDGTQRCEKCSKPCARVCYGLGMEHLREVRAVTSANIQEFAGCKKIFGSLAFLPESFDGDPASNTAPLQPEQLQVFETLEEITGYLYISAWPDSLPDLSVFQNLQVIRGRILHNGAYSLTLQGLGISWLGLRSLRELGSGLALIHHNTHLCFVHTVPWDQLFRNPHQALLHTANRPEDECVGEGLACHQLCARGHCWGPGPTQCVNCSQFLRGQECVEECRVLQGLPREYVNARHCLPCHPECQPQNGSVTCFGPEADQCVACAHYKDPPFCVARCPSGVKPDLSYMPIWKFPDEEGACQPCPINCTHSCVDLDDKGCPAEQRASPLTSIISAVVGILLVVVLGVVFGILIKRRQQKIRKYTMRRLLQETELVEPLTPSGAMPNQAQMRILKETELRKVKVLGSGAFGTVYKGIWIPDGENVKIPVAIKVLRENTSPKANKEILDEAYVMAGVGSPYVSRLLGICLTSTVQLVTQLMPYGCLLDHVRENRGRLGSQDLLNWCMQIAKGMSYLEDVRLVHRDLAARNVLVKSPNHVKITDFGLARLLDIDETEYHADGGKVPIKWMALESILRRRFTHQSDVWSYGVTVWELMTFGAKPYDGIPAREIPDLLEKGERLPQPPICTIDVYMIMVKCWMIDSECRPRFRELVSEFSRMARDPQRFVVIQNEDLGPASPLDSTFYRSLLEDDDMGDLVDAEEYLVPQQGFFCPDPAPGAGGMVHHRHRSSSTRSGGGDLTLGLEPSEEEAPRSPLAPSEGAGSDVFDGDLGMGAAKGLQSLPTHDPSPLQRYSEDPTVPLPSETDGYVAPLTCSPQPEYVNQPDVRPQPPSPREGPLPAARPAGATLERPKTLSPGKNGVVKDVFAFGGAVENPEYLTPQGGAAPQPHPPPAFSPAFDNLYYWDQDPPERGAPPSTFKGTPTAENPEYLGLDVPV

Sequence of Tyrosine-protein kinase Fyn (P06241 whole entry): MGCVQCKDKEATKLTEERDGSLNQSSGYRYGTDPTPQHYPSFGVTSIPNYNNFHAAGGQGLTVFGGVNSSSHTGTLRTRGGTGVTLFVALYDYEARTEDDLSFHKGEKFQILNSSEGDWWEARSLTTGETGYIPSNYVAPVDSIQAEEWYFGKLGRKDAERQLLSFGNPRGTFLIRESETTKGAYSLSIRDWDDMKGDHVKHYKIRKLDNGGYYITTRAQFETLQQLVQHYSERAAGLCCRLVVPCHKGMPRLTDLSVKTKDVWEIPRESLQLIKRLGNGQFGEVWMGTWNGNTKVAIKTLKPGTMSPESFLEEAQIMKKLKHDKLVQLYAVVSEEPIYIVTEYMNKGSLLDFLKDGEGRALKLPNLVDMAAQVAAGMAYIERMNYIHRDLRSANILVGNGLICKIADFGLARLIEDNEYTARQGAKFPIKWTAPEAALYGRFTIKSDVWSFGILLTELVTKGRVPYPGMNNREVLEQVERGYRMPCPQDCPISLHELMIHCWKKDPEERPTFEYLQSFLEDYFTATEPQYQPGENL
Sequence of Sodium-dependent dopamine transporter (Q01959 whole entry): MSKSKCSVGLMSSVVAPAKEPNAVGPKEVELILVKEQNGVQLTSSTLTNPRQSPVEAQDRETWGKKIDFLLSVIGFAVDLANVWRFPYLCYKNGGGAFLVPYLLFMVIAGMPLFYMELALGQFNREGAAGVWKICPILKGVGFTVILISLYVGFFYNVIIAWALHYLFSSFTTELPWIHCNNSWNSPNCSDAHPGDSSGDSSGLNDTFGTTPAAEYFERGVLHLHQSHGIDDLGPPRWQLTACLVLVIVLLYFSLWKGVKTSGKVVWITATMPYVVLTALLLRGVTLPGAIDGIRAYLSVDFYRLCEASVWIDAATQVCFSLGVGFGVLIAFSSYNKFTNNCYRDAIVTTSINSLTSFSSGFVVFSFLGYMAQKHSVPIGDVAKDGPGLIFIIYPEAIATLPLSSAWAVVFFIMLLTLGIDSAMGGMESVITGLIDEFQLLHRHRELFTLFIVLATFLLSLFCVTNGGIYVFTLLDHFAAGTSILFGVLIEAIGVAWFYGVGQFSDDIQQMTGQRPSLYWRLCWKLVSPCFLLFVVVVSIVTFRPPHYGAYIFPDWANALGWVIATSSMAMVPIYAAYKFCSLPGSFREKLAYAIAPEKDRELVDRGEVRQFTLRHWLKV

Compound | IC50 [1] | IC50 ([2]; cho-k1) | IC50 (Glycine receptor) | IC50 [3] | Ki [3] | IC50 [4] | Ki [4] | IC50 [5] | Ki [5] | IC50 ([6]; insect cells) | IC50 [7] | IC50 ([2]; read-out: IC50) [µM] | Ki ([2]; read-out: Ki) [µM] | IC50 ([6]; read-out: IC50) [nM]
C#C[C@]1(O)CC[C@H]2[C@@H]3[C@H](C)CC4=C(CCC(=O)C4)[C@H]3CC[C@@]21C [TIBOLONE] | Not Active | Not Active | Not Active | Not Active | Not Active | Not Active | Not Active | Not Active | Not Active | Not Active | Not Active | – | – | –
CN1C(=O)OC(C)(C)C1=O [TRIMETHADIONE] | Not Active | Not Active | Not Active | Not Active | Not Active | Not Active | Not Active | Not Active | Not Active | Not Active | Not Active | – | – | –
OC[C@@H](O)[C@@H](O)[C@H](O)[C@H](O)CO [MANNITOL] | Not Active | Not Active | Not Active | Not Active | Not Active | Not Active | Not Active | Not Active | Not Active | Not Active | Not Active | – | – | –
CCN(CC)C(=S)SSC(=S)N(CC)CC | Not Active | – | Not Active | Not Active | Not Active | Not Active | Not Active | Not Active | Not Active | Not Active | Not Active | 4.64 | 3.68 | –
O=C(O)c1cc(/N=N/c2ccc(S(=O)(=O)Nc3ccccn3)cc2)ccc1O [SULFASALAZINE] | Not Active | Not Active | Not Active | Not Active | Not Active | Not Active | Not Active | Not Active | Not Active | Not Active | Not Active | – | – | –
O=C(c1ccccc1)c1ccc2n1CCC2C(=O)O (stereo not drawn) [KETOROLAC] | Not Active | Not Active | Not Active | Not Active | Not Active | Not Active | Not Active | Not Active | Not Active | Not Active | Not Active | – | – | –
CC[C@H](C)[C@@H](CO[C@@H](Cc1ccccc1)C(=O)N[C@@H](CCS(C)(=O)=O)C(=O)OC(C)C)NC[C@@H](N)CS | Not Active | Not Active | Not Active | Not Active | Not Active | Not Active | Not Active | Not Active | Not Active | – | Not Active | – | – | 813
CC(C)(C)NC[C@H](O)COc1cccc2c1CCCC2=O [LEVOBUNOLOL] | Not Active | Not Active | Not Active | Not Active | Not Active | Not Active | Not Active | Not Active | Not Active | Not Active | Not Active | – | – | –
C[N+]1(C)[C@@H]2C[C@@H](OC(=O)[C@H](CO)c3ccccc3)C[C@H]1[C@@H]1O[C@@H]12.[Br-] [METHSCOPOLAMINE BROMIDE] | Not Active | Not Active | Not Active | Not Active | Not Active | Not Active | Not Active | Not Active | Not Active | Not Active | Not Active | – | – | –
CO[C@@H]1[C@@H](OC)[C@H](C)[C@@](O)(CC(=O)O)O[C@H]1[C@H](C)[C@H]1O[C@@]2(CC[C@@](C)([C@H]3CC[C@@](C)([C@@H]4O[C@@H]([C@H]5O[C@](C)(O)[C@H](C)C[C@@H]5C)C[C@@H]4O[C@@H]4C[C@H](OC)[C@@H](OC)[C@H](C)O4)O3)O2)C[C@H](O)[C@H]1C.N [MADURAMICIN] | Not Active | Not Active | Not Active | Not Active | Not Active | Not Active | Not Active | Not Active | Not Active | Not Active | Not Active | – | – | –
Cc1nnc(NS(=O)(=O)c2ccc(N)cc2)s1 [SULFAMETHIZOLE] | Not Active | Not Active | Not Active | Not Active | Not Active | Not Active | Not Active | Not Active | Not Active | Not Active | Not Active | – | – | –
Cc1cnc(NC(=O)C2=C(O)c3ccccc3S(=O)(=O)N2C)s1 [MELOXICAM] | Not Active | Not Active | Not Active | Not Active | Not Active | Not Active | Not Active | Not Active | Not Active | Not Active | Not Active | – | – | –
